Test results taken from patent US9686989B2, “Synergistic combination of a flurochloridone compound and zinc pyrithione for dry film protection” (Rohm and Haas Company, priority 2013, dated 2017).

Tested on: Chlorella sp. ATCC 7516
Assay: Algal efficacy testing of dry paint film (modified ASTM 5589, 6-well plates)
Type: cell-based
Settings: 672 h, 4 weeks, pass level ≧75% inhibition
Procedure: Slurries containing 33% antimicrobial active ingredient (flurochloridone) were post added to a white, acrylic/silicone based outdoor paint free of biocides to give a total active ingredient concentration of 10000 and 1000 ppm respectively. KATHON™ 893T (100% OIT) was post added to a white, acrylic/silicone based outdoor paint free of biocides to give a total active ingredient concentration of 10000 and 1000 ppm respectively. These paints were then diluted with an antimicrobial free acrylic/silicone based paint and mixed to prepare targeted concentrations of antimicrobial compounds for the testing. The total biocides concentrations tested were 125, 250, 500, 1000, 2000 and 5000 ppm. After biocides addition or dilution, the paints were mixed 90 seconds with the horse power shaker (AXEL 75M3372/Agitateur SO-10MI) until uniformity was achieved. […]
Each well that contains a tested coupon was inoculated with 1750 μl of algal suspensions (1×10^6 cfu/ml) making sure that the whole surface (paint film as well as the agar surrounding it) was evenly covered. […] The total area inhibited was evaluated at the end of each week according to percent area covered in 5% increments
At the end of the four week incubation period, the samples were scored for percent inhibition regarding color intensity compared to the blank sample. […]
The SI is calculated based on F. C. […]

Question: With `O=C1C(Cl)C(CCl)CN1c1cccc(C(F)(F)F)c1` (centres unmarked) [Flurochloridone, 3-chloro-4-(chloromethyl)-1-[3-(trifluoromethyl)phenyl]-2-pyrrolidinone] as the molecule, how does the inhibition at 5000 ppm (total conc 5000 ppm in paint) read?
Answer: Its inhibition at 5000 ppm is 90%.

Question: Which inhibition at 2000 ppm (total conc 2000 ppm in paint) does the source give for `CCCCCCCCn1sccc1=O` [OIT, 2-n-octyl-4-isothiazolin-3-one] here?
Answer: Its inhibition at 2000 ppm is 65%.
